Source: ChEMBL document CHEMBL4251708, “Synthesis and Biological Screening of Pyrano[3,2-c]quinoline Analogues as Anti-inflammatory and Anticancer Agents” (ACS Med Chem Lett, 2018)
Activity calls are given as the source filed them. No cut-off for these calls is given here.

How the values were obtained:
THP-1 [1] = test: Antiinflammatory activity in PMA-differentiated human THP1 cells assessed as inhibition of LPS-induced TNF-alpha production at 1 uM after 24 hrs by ELISA relative to control; type: functional; conditions: THP-1, 24 h
MIA PaCa-2 = test: Antiproliferative activity against human MIAPaCa2 cells at 10 uM relative to control; type: functional
[2] = tested on: MIA PaCa-2 (Homo sapiens); test: Antiproliferative activity against human MIA PaCa-2 cells at 1 uM relative to control
ACHN (Homo sapiens) [3] = test: Antiproliferative activity against human ACHN cells at 10 uM relative to control
THP-1 [4] = test: Antiinflammatory activity in PMA-differentiated human THP1 cells assessed as inhibition of LPS-induced IL-6 production at 10 uM after 24 hrs by ELISA relative to control; type: functional; conditions: THP-1, 24 h
THP-1 (Homo sapiens) [5] = test: Antiinflammatory activity in human THP1 cells assessed as inhibition of TNF-alpha production at 10 uM relative to control; set-up: scale not given: the % may be the effect or the level left
[6] = tested on: MDA-MB-231 (Homo sapiens); test: Antiproliferative activity against human MDA-MB-231 cells at 10 uM relative to control
[7] = tested on: MDA-MB-231 (Homo sapiens); test: Antiproliferative activity against human MDA-MB-231 cells at 1 uM relative to control; conditions: mda-mb-231, 1 µM
ACHN (Homo sapiens) [8] = test: Antiproliferative activity against human ACHN cells at 1 uM relative to control
THP-1 [9] = test: Antiinflammatory activity in PMA-differentiated human THP1 cells assessed as inhibition of LPS-induced TNF-alpha production at 10 uM after 24 hrs by ELISA relative to control; type: functional; conditions: THP-1, 24 h
THP-1 [10] = test: Antiinflammatory activity in PMA-differentiated human THP1 cells assessed as inhibition of LPS-induced IL-6 production at 1 uM after 24 hrs by ELISA relative to control; type: functional; conditions: THP-1, 24 h
Calu-1 = test: Antiproliferative activity against human Calu1 cells after 48 hrs by propidium iodide staining based fluorometry; type: functional, cell-based; conditions: Calu-1, 48 h
PANC-1 = test: Antiproliferative activity against human PANC1 cells after 48 hrs by propidium iodide staining based fluorometry; type: functional, cell-based; conditions: PANC-1, 48 h
THP-1 [11] = test: Antiinflammatory activity in PMA-differentiated human THP1 cells assessed as inhibition of LPS-induced IL-6 production after 24 hrs by ELISA; type: functional, cell-based; conditions: THP-1, 24 h
THP-1 [12] = test: Cytotoxicity against PMA-differentiated human THP1 cells assessed as reduction in cell viability after 4.5 hrs by MTS assay; type: cell-based; conditions: THP-1, 4.5 h
PBMC = test: Antiinflammatory activity in human PBMC assessed as inhibition of LPS-induced TNF-alpha production incubated for 30 mins followed by LPS addition measured after 4.5 hrs by ELISA; type: functional, cell-based
HCT-116 = test: Antiproliferative activity against human HCT116 cells after 48 hrs by propidium iodide staining based fluorometry; type: functional, cell-based; conditions: HCT-116, 48 h
ACHN = test: Antiproliferative activity against human ACHN cells after 48 hrs by propidium iodide staining based fluorometry; type: functional, cell-based
THP-1 [13] = test: Antiinflammatory activity in PMA-differentiated human THP1 cells assessed as inhibition of LPS-induced TNF-alpha production after 24 hrs by ELISA; type: functional, cell-based; conditions: THP-1, 24 h
THP-1 (Homo sapiens) [14] = test: Antiinflammatory activity in human THP1 cells assessed as inhibition of IL-6 production at 10 uM relative to control; set-up: scale not given: the % may be the effect or the level left
NCI-H460 = test: Antiproliferative activity against human H460 cells after 48 hrs by propidium iodide staining based fluorometry; type: functional, cell-based; conditions: NCI-H460, 48 h

SMILES	inhibition at 1 µM (THP-1 [1])	Activity (MIA PaCa-2)	Activity [2]	inhibition at 10 µM (THP-1 [4])	Activity (THP-1 (Homo sapiens) [5])	Activity [6]	Activity [7]	Activity (ACHN (Homo sapiens) [8])	inhibition at 10 µM (THP-1 [9])	inhibition at 1 µM (THP-1 [10])	Activity (THP-1 (Homo sapiens) [14])	also measured
COc1cccc(C2C(C#N)=C(N)Oc3c2c(=O)n(C)c2ccccc32)c1 (configuration not stated)	0%	75%	76%	70%	0%	75%	66%	67%	0%	0%	–	Activity (ACHN (Homo sapiens) [3]): 73%
Cn1c(=O)c2c(c3ccccc31)OC(N)=C(C#N)C2c1cccc(Cl)c1 (configuration not stated)	0%	38%	63%	74%	44%	–	53%	81%	0%	0%	74%	IC50 (Calu-1): 500 nM; IC50 (PANC-1): 1000 nM; IC50 (THP-1 [11]): 200 nM; IC50 (THP-1 [12]): > 10 µM; IC50 (PBMC): 1800 nM; IC50 (HCT-116): 300 nM; IC50 (ACHN): 100 nM; IC50 (THP-1 [13]): 0.5 µM; IC50 (NCI-H460): 300 nM
CSc1ccc(C2C(C#N)=C(N)Oc3c2c(=O)n(C)c2ccccc32)cc1 (configuration not stated)	0%	17%	16%	0%	28%	10%	0%	0%	0%	0%	37%	–
CN(C)c1ccc(C2C(C#N)=C(N)Oc3c2c(=O)n(C)c2ccccc32)cc1 (configuration not stated)	0%	31%	34%	10%	0%	22%	20%	41%	0%	0%	0%	–
Cn1c(=O)c2c(c3ccccc31)OC(N)=C(C#N)C2c1ccc(O)cc1 (configuration not stated)	0%	83%	55%	13%	0%	77%	23%	55%	0%	0%	0%	IC50 (Calu-1): 1100 nM; IC50 (PANC-1): 1900 nM; IC50 (THP-1 [11]): 4000 nM; IC50 (THP-1 [12]): 30 µM; inhibition (PBMC): inactive; IC50 (HCT-116): 600 nM; IC50 (ACHN): 1800 nM; IC50 (THP-1 [13]): 10 µM; IC50 (NCI-H460): 1200 nM
COc1ccc(C2C(C#N)=C(N)Oc3c2c(=O)n(C)c2ccccc32)cc1OC (configuration not stated)	0%	50%	40%	23%	0%	24%	20%	38%	0%	0%	43%	–
Cn1c(=O)c2c(c3ccccc31)OC(N)=C(C#N)C2c1ccc(Cl)cc1 (configuration not stated)	0%	63%	21%	75%	42%	–	0%	45%	0%	0%	75%	Activity (ACHN (Homo sapiens) [3]): 69%
COc1ccccc1C1C(C#N)=C(N)Oc2c1c(=O)n(C)c1ccccc21 (configuration not stated)	0%	21%	24%	14%	0%	18%	22%	37%	0%	0%	32%	–
C[C@@H]1C[C@H]2[C@@H]3CCC4=CC(=O)C=C[C@]4(C)[C@@]3(F)[C@@H](O)C[C@]2(C)[C@@]1(O)C(=O)CO [DEXAMETHASONE]	40%	–	–	–	–	–	–	–	–	58%	–	–
